Source: patent US20240189304A1, “BET PROTEIN INHIBITORS AND USE THEREOF” (The Regents of the University of California, priority 2021, published 2024)
Where “and” joins values, the source holds several entries; their conditions need not be identical. Equal values may be shown once.

Tests used:
[1] = tested on: Molm-13 cells; details: seven days post transduction; cited from earlier work
[2] = target: Brd4 ET (Homo sapiens, UniProt O60885); details: peptide construct, read-out: binding affinity; cited from earlier work
[3] = tested on: C4-2B cells; experiment: C4-2B cell growth, total cell number by Coulter Counter; assay type: cell-based; details: 1-40 μM, 6 days
Protocol: (§1) C4-2B and C4-2B MDVR Cells were plated at 20,000 cells per well in 24-well plates and treated as indicated for 6 days. Total cell number was assessed by Coulter Counter. * indicates significant difference from control for each cell line, p<0.05.

[4] = tested on: C4-2B MDVR cells; experiment: C4-2B MDVR (enzalutamide resistant) cell growth, cell number; assay type: cell-based; details: for inhibition of cell growth (cell number): 5 μM
Protocol: (§2) Enzalutamide resistant C4-2B MDVR cells and darolutamide resistant C4-2B DaroR cells were treated with candidate compounds at 5 μM. BET (I-BET151; (R)-7-(3,5-dimethylisoxazol-4-yl)-8-methoxy-1-(1-(pyridin-2-yl)ethyl)-1,3-dihydro-2H-imidazo[4,5-c]quinolin-2-one; CAS RN 1300031-49-5) was used as the positive control at 5 μM. The cell number was determined. Only piperazine BET protein inhibitor 10 and the BET control inhibited both C4-2B MDVR and C4-2B DaroR cell growth at a concentration of 5 μM. Other compounds from the screen were not observed to effect cell growth under the test conditions.
C4-2B MDVR cells were treated with increasing doses of piperazine BET protein inhibitor 10 and compound 8 (8-(1-isopropyl-6-methyl-1H-pyrazolo[3,4-b]pyridine-5-carbonyl)-1,3-diazaspiro[4.5]decane-2,4-dione) as indicated. The cell number was determined after 3-day treatment.
as §1
C4-2B MDVR cells were plated at 20,000 cells per well in 24-well plates and treated for 5 days with the indicated compounds. The total cell number was determined and expressed as percentage of control. * indicates a significant difference from control, p<0.05.

[5] = tested on: C4-2B MDVR cells; experiment: Growth inhibition in combination with enzalutamide, coefficient of drug interaction; assay type: cell-based; details: for CDI: with enzalutamide; for CDI / CDI with Enzalutamide: C4-2B MDVR cells; for CDI with Enzalutamide: treated for 5 days; for 3 Day CDI / 5 Day CDI: with enzalutamide (MDV)
Protocol: C4-2B AbiR: abiraterone resistance; C4-2B ApaR: apalutamide resistance; C4-2B DaroR: darolutamide resistance; C4-2B MDVR: enzalutamide resistance.
Piperidine BET protein inhibitor 2 was also found to synergize with enzalutamide in inhibiting the growth of enzalutamide-resistant C4-2b MDVR cells, as shown in FIG. 6A and FIG. 6B.
Organoids generated from enzalutamide resistant LuCaP35CR PDX tumors were treated with either piperazine BET protein inhibitor 10 at concentrations as indicated (A) or in combination with enzalutamide 20 μM(C) for 7 days; representative organoids were imaged under the fluorescence microscope after stained by LIVE/DEAD Viability/Cytotoxicity Kit (Invitrogen MP03224). Organoid viability was measured using CellTiter Glo (Promega Catelog#G9681) for piperazine BET protein inhibitor 10 single treatment (B) and for combinational treatment with enzalutamide (D, E). […] Blue indicates synergy while red indicates antagonism between drugs. The coefficient of drug interaction (CDI) is calculated as follows: CDI=AB/(A×B). A is growth inhibition effect of treatment with the BET protein inhibitor. B is growth inhibition effect of enzalutamide treatment. AB is the growth inhibition effect of the combination treatment. […] The coefficient of drug interaction (CDI) of 20 μM enzalutamide with 0.5 μM BET protein inhibitor combination treatment were 0.97 and 0.91 respectively in LuCaP35CR organoids, evidencing a synergistic effect (CDI=0.4222, <1).
C4-2B MDVR […], and then total cell numbers were determined. * indicates significant difference from control and ** indicates significant difference between Enza drug treatment and the combination treatment; p<0.05.

[6] = tested on: C4-2B ApaR cells; experiment: Growth inhibition in combination with apalutamide, coefficient of drug interaction; assay type: cell-based; details: with apalutamide (Apa)
[7] = tested on: AR-FL; experiment: Western blot of AR-FL expression in C4-2B MDVR cells; assay type: cell-based; details: increasing doses, 2 days
Protocol: (§3) C4-2B MDVR cells were treated with piperazine BET protein inhibitor 10 and the I-BET151 control at increasing doses for 2 days. The cell lysates were subjected to Western blot analysis for BRD4, AR-FL, and cMYC expression. As shown here, both piperazine BET protein inhibitor 10 and I-BET151 inhibited BRD4, AR-FL, and cMYC protein expression.

[8] = target: T1, BRD4 (Homo sapiens, UniProt O60885); experiment: Western blot of BRD4 expression in C4-2B MDVR cells; assay type: cell-based; details: increasing doses, 2 days
T1 construct: endogenous in cells; host or cells: C4-2B MDVR
Protocol: as §3

[9] = tested on: MYC signaling pathway; experiment: Analysis of total RNA isolated from treated cells; assay type: cell-based; details: data not shown
[10] = tested on: C4-2B DaroR cells; experiment: Growth inhibition in combination with darolutamide, coefficient of drug interaction; assay type: cell-based; details: with darolutamide (Daro)
[11] = tested on: C4-2B AbiR cells; experiment: Growth inhibition in combination with abiraterone, coefficient of drug interaction; assay type: cell-based; details: with abiraterone (Abi)
[12] = tested on: C4-2B DaroR cells; experiment: C4-2B DaroR (darolutamide resistant) cell growth, cell number; assay type: cell-based; details: 5 μM
Protocol: as §2

[13] = tested on: cMYC; experiment: cMYC expression in C4-2B MDVR cells; assay type: cell-based; details: increasing doses, 2 days, Western blot
Protocol: as §3

[14] = tested on: LuCaP49 prostate cancer PDX; experiment: LuCaP49 prostate cancer PDX tumor growth in mice; assay type: in vivo; details: 60 mg/kg, i.p., daily, 5 days/week
Protocol: Mice bearing tumors from LuCaP49 prostate cancer PDX were treated with BETi-10 (60 mg/kg, i.p.) daily, 5 days/week. Tumor volume were measured and relative fold changes were calculated compared to the day 0 treatment.

17 amino acid region TWRVQRSQNPLKIRKTR(389′-405′) (SEQ ID NO:1) of MLV IN, minimal binding region for Brd4 ET [EBM]
reduction in cellular proliferation compared to vector control cells [1]: ~10 fold
Kd [2]: ~160 nM

CC(C)n1nccc1NC(=O)C1CCCN(C(=O)c2ccc(Cl)c(Cl)c2)C1 (stereo not drawn) [Compound 2, 1-(3,4-dichlorobenzoyl)-N-(1-isopropyl-1H-pyrazol-5-yl)piperidine-3-carboxamide]
inhibition of cell growth (total cell number) [3]: inhibit the growth of C4-2B and C4-2B MDVR cells in a dose-dependent manner
inhibition of cell growth (total cell number) ([4]; 1-40 μM, 6 days): inhibit the growth of C4-2B and C4-2B MDVR cells in a dose-dependent manner
CDI ([5]; 3 Day, 10 μM 2): 0.751
CDI ([5]; 3 Day, 20 μM 2): 0.8105
CDI ([5]; 5 Day, 10 μM 2): 0.792
CDI ([5]; 5 Day, 20 μM 2): 0.702

Cc1nc2c(cnn2C(C)C)cc1C(=O)C1CCC2(CC1)NC(=O)NC2=O (stereo not drawn) [Compound 8, 8-(1-isopropyl-6-methyl-1H-pyrazolo[3,4-b]pyridine-5-carbonyl)-1,3-diazaspiro[4.5]decane-2,4-dione]
growth inhibition at increasing doses ([4]; 3-day treatment): no growth inhibition was observed

O=C(Nc1cccc(C(=O)N2CCN(CCOc3ccc(Cl)cc3)CC2)c1)C1CCCO1 (stereo not drawn) [Compound 10, N-(3-(4-(2-(4-chlorophenoxy)ethyl)piperazine-1-carbonyl)phenyl)tetrahydrofuran-2-carboxamide]
3 Day CDI ([6]; 1 μM (10)): 0.7981
5 Day CDI ([6]; 1 μM (10)): 0.639
3 Day CDI ([6]; 2.5 μM (10)): 0.7358
5 Day CDI ([6]; 2.5 μM (10)): 0.54 and 0.5381
AR-FL protein expression [7]: inhibited
BRD4 protein expression [8]: inhibited
inhibition of the MYC signaling pathway [9]: inhibit the MYC signaling pathway
3 Day CDI ([10]; 1 μM (10)): 0.6607
5 Day CDI ([10]; 1 μM (10)): 0.4574
3 Day CDI ([10]; 2.5 μM (10)): 0.6111
5 Day CDI ([10]; 2.5 μM (10)): 0.38 and 0.3762
3 Day CDI ([11]; 1 μM (10)): 1.019
5 Day CDI ([11]; 1 μM (10)): 1.362
3 Day CDI ([11]; 2.5 μM (10)): 0.914
5 Day CDI ([11]; 2.5 μM (10)): 0.98 and 0.9835
inhibition of cell growth (cell number) [12]: inhibited
cMYC protein expression [13]: inhibited
inhibition of cell growth (cell number) [4]: inhibited
growth inhibition at increasing doses ([4]; 3-day treatment): inhibited growth of C4-2B MDVR cells in a dose-dependent manner
IC50 ([4]; 72 h, 3-day treatment): 1700 to 2100 nM
tumor growth (tumor volume, relative fold change to day 0) [14]: inhibit the growth
CDI with Enzalutamide [5]: 0.76
3 Day CDI ([5]; 1 μM (10)): 0.6791
5 Day CDI ([5]; 1 μM (10)): 0.3464
3 Day CDI ([5]; 2.5 μM (10)): 0.5693
5 Day CDI ([5]; 2.5 μM (10)): 0.26 and 0.2628

O=C(Nc1cccc(C(=O)N2CCN(CCOc3ccc(Cl)cc3)CC2)c1)c1ccco1 [Compound 11, N-(3-(4-(2-(4-chlorophenoxy)ethyl)piperazine-1-carbonyl)phenyl)furan-2-carboxamide]
inhibition of the MYC signaling pathway [9]: inhibit the MYC signaling pathway
CDI with Enzalutamide [5]: 0.90

N[C@@H](Cc1c[nH]c2ccccc12)C(=O)Nc1cccc(C(=O)N2CCN(CCOc3ccc(Cl)cc3)CC2)c1 [Compound 12, (S)-2-Amino-N-(3-(4-(2-(4-chlorophenoxy)ethyl)piperazine-1-carbonyl)phenyl)-3-(1H-indol-3-yl)propenamide]
CDI with Enzalutamide [5]: 0.90

CC(C)(C)OC(=O)N[C@@H](Cc1c[nH]c2ccccc12)C(=O)Nc1cccc(C(=O)N2CCN(CCOc3ccc(Cl)cc3)CC2)c1 [Compound 13]
CDI with Enzalutamide [5]: 0.81

N[C@@H](Cc1c[nH]cn1)C(=O)Nc1cccc(C(=O)N2CCN(CCOc3ccc(Cl)cc3)CC2)c1 [Compound 14, (S)-2-Amino-N-(3-(4-(2-(4-chlorophenoxy)ethyl)piperazine-1-carbonyl)phenyl)-3-(1H-imidazol-4-yl)propenamide]
CDI with Enzalutamide [5]: 0.82

COc1cc2c(cc1-c1c(C)noc1C)ncc1[nH]c(=O)n([C@H](C)c3ccccn3)c12 [I-BET151, (R)-7-(3,5-dimethylisoxazol-4-yl)-8-methoxy-1-(1-(pyridin-2-yl)ethyl)-1,3-dihydro-2H-imidazo[4,5-c]quinolin-2-one, reference compound]
AR-FL protein expression [7]: inhibited
BRD4 protein expression [8]: inhibited
inhibition of cell growth (cell number) [12]: inhibited
cMYC protein expression [13]: inhibited
inhibition of cell growth (cell number) [4]: inhibited
